Data from paper PMC3082041 (Cancer Chemotherapy and Pharmacology, 2010).

What was measured:
[1] = Plasma pharmacokinetics of TSU-68; format: in vivo, human (Japanese patients); details: for AUC(0-t) / Cmax / half-life / Tmax: human, oral
[2] = published clinical result; cited from earlier work

**Q.** What does the source list for `Cc1[nH]c(/C=C2\C(=O)Nc3ccccc32)c(C)c1CCC(=O)O` [TSU-68, (Z)-3-[2,4-dimethyl-5-(2-oxo-1,2-dihydro-indol-3-ylidenemethyl)-1H-pyrrol-3-yl]-propionic acid]?
**A.** time to reach Cmax ([1]; after the first dose, plasma): ~ 2.5 h; AUC(0-t) ([1]; plasma, 200 mg/m2, AUC0–t, 200 mg/m^2, Day 1, 3 patients, plasma): 45600 ± 21000 ng·h/mL; AUC(0-t) ([1]; plasma, 200 mg/m2, AUC0–t, 200 mg/m^2, Day 8, 3 patients, plasma): 20600 ± 6200 ng·h/mL; AUC(0-t) ([1]; plasma, 200 mg/m2, AUC0–t, 200 mg/m^2, Day 29, 3 patients, plasma): 21200 ± 9500 ng·h/mL; Cmax ([1]; plasma, 200 mg/m2, Cmax, 200 mg/m^2, Day 1, 3 patients, plasma): 10600 ± 6040 ng/mL; Cmax ([1]; plasma, 200 mg/m2, Cmax, 200 mg/m^2, Day 8, 3 patients, plasma): 6670 ± 3700 ng/mL; Cmax ([1]; plasma, 200 mg/m2, Cmax, 200 mg/m^2, Day 29, 3 patients, plasma): 6350 ± 3780 ng/mL; half-life ([1]; plasma, 200 mg/m2, T1/2, 200 mg/m^2, Day 1, 3 patients, plasma): 8.03 ± 3.82 h; half-life ([1]; plasma, 200 mg/m2, T1/2, 200 mg/m^2, Day 8, 3 patients, plasma): 4.8 ± 2.14 h; half-life ([1]; plasma, 200 mg/m2, T1/2, 200 mg/m^2, Day 29, 3 patients, plasma): 3.59 ± 1.71 h; Tmax ([1]; plasma, 200 mg/m2, Tmax, 200 mg/m^2, Day 1, 3 patients, plasma): 2.3 ± 1.5 h; Tmax ([1]; plasma, 200 mg/m2, Tmax, 200 mg/m^2, Day 8, 3 patients, plasma): 1.7 ± 0.3 h; Tmax ([1]; plasma, 200 mg/m2, Tmax, 200 mg/m^2, Day 29, 3 patients, plasma): 1.7 ± 0.8 h; AUC(0-t) ([1]; plasma, 400 mg/m2, AUC0–t, 400 mg/m^2, Day 1, 3 patients, plasma): 58200 ± 16800 ng·h/mL; AUC(0-t) ([1]; plasma, 400 mg/m2, AUC0–t, 400 mg/m^2, Day 8, 3 patients, plasma): 25000 ± 9400 ng·h/mL; AUC(0-t) ([1]; plasma, 400 mg/m2, AUC0–t, 400 mg/m^2, Day 29, 2 patients, plasma): 22900 ng·h/mL; Cmax ([1]; plasma, 400 mg/m2, Cmax, 400 mg/m^2, Day 1, 3 patients, plasma): 11700 ± 3810 ng/mL; Cmax ([1]; plasma, 400 mg/m2, Cmax, 400 mg/m^2, Day 8, 3 patients, plasma): 7210 ± 1060 ng/mL; Cmax ([1]; plasma, 400 mg/m2, Cmax, 400 mg/m^2, Day 29, 2 patients, plasma): 6350 ng/mL; half-life ([1]; plasma, 400 mg/m2, T1/2, 400 mg/m^2, Day 1, 3 patients, plasma): 7.89 ± 4.04 h; half-life ([1]; plasma, 400 mg/m2, T1/2, 400 mg/m^2, Day 8, 3 patients, plasma): 3.53 ± 0.43 h; half-life ([1]; plasma, 400 mg/m2, T1/2, 400 mg/m^2, Day 29, 2 patients, plasma): 5.36 h; Tmax ([1]; plasma, 400 mg/m2, Tmax, 400 mg/m^2, Day 1, 3 patients, plasma): 2.5 ± 1.3 h; Tmax ([1]; plasma, 400 mg/m2, Tmax, 400 mg/m^2, Day 8, 3 patients, plasma): 1.8 ± 0.3 h; Tmax ([1]; plasma, 400 mg/m2, Tmax, 400 mg/m^2, Day 29, 2 patients, plasma): 1 h; AUC(0-t) ([1]; plasma, 800 mg/m2, AUC0–t, 800 mg/m^2, Day 1, 6 patients, plasma): 83300 ± 32700 ng·h/mL; AUC(0-t) ([1]; plasma, 800 mg/m2, AUC0–t, 800 mg/m^2, Day 8, 5 patients, plasma): 44600 ± 17300 ng·h/mL; AUC(0-t) ([1]; plasma, 800 mg/m2, AUC0–t, 800 mg/m^2, Day 29, 4 patients, plasma): 30000 ± 16700 ng·h/mL; Cmax ([1]; plasma, 800 mg/m2, Cmax, 800 mg/m^2, Day 1, 6 patients, plasma): 14600 ± 5650 ng/mL; Cmax ([1]; plasma, 800 mg/m2, Cmax, 800 mg/m^2, Day 8, 5 patients, plasma): 10600 ± 1830 ng/mL; Cmax ([1]; plasma, 800 mg/m2, Cmax, 800 mg/m^2, Day 29, 4 patients, plasma): 10700 ± 4690 ng/mL; half-life ([1]; plasma, 800 mg/m2, T1/2, 800 mg/m^2, Day 1, 6 patients, plasma): 9.93 ± 6.01 h; half-life ([1]; plasma, 800 mg/m2, T1/2, 800 mg/m^2, Day 8, 5 patients, plasma): 4.31 ± 2.72 h; half-life ([1]; plasma, 800 mg/m2, T1/2, 800 mg/m^2, Day 29, 4 patients, plasma): 4.37 ± 4.05 h; Tmax ([1]; plasma, 800 mg/m2, Tmax, 800 mg/m^2, Day 1, 6 patients, plasma): 2.8 ± 1.1 h; Tmax ([1]; plasma, 800 mg/m2, Tmax, 800 mg/m^2, Day 8, 5 patients, plasma): 1.5 ± 0.4 h; Tmax ([1]; plasma, 800 mg/m2, Tmax, 800 mg/m^2, Day 29, 4 patients, plasma): 2.1 ± 0.3 h; Cmax ([1]; plasma, 1200 mg/m^2, Cmax, 1,200 mg/m^2, Day 1, 3 patients, plasma): 16000 ± 1910 ng/mL; Cmax ([1]; plasma, 1200 mg/m^2, Cmax, 1,200 mg/m^2, Day 8, 3 patients, plasma): 8150 ± 4220 ng/mL; Cmax ([1]; plasma, 1200 mg/m^2, Cmax, 1,200 mg/m^2, Day 29, 3 patients, plasma): 6710 ± 884 ng/mL; half-life ([1]; plasma, 1200 mg/m^2, T1/2, 1,200 mg/m^2, Day 1, 3 patients, plasma): 8.33 ± 4.65 h; half-life ([1]; plasma, 1200 mg/m^2, T1/2, 1,200 mg/m^2, Day 8, 3 patients, plasma): 2.78 ± 0.9 h; half-life ([1]; plasma, 1200 mg/m^2, T1/2, 1,200 mg/m^2, Day 29, 3 patients, plasma): 4.84 ± 3.29 h; Tmax ([1]; plasma, 1200 mg/m^2, Tmax, 1,200 mg/m^2, Day 1, 3 patients, plasma): 2.2 ± 0.8 h; Tmax ([1]; plasma, 1200 mg/m^2, Tmax, 1,200 mg/m^2, Day 8, 3 patients, plasma): 1.8 ± 0.3 h; Tmax ([1]; plasma, 1200 mg/m^2, Tmax, 1,200 mg/m^2, Day 29, 3 patients, plasma): 1.7 ± 0.3 h; trough plasma level versus IC50 for VEGF and PDGF receptors cellular assay ([1]; steady-state exposure, 200 mg/m^2, IC50 from ref 16): above the IC50; AUC on day 56 compared with day 28 [2]: similar
